From patent publication US9815854B2, “3-(3H-imidazo[4,5-B]pyridin-2-yl)-1H-pyrazolo[3,4-C]pyridine and therapeutic uses thereof” (Samumed, LLC, priority 2014, dated 2017)
Like-named read-outs stand apart in the source and are kept apart here.

Assays:
[1] = test system: Wnt activity (Sp5-Luc reporter, TCF/LEF binding sites) in SW480 colon carcinoma cells; experiment: Sp5-Luc Wnt reporter gene screening assay in SW480 colon carcinoma cells; assay type: cell-based, human
From the text: The screening assay for Wnt activity is described as follows. Reporter cell lines can be generated by stably transducing cancer cell lines (e.g., colon cancer) or primary cells (e.g., IEC-6 intestinal cells) with a lentiviral construct that includes a Wnt-responsive promoter driving expression of the firefly luciferase gene.
SW480 colon carcinoma cells were transduced with a lentiviral vector expressing luciferase with a human Sp5 promoter consisting of a sequence of eight TCF/LEF binding sites. SW480 cells stably expressing the Sp5-Luc reporter gene and a hygromycin resistance gene were selected by treatment with 150 μg/ml of hygroinycin for 7 days. These stably transduced SW480 cells were expanded in cell culture and used for all further screening activities. For Sp5-Luc reporter gene assays, the cells were plated at 10,000 cells/well in 96-well plates with growth medium containing 10% fetal calf serum and incubated overnight at 37° C. and 5% CO2. Each compound was dissolved in DMSO as a 10 mM stock in standard j-vials and used to prepare compound source plates in dose-response format with 3-fold serial dilutions and a 10 mM top concentration. Compound transfer from serially diluted source plates to assay plates containing the cells was accomplished using a pintool (Multimek 96, Beckman equipped with V&P Scientific FP1S50H pins) based liquid handling protocol. This protocol used a slotted pin to transfer 50 nl of compound from a source plate well to an assay plate well containing 50 μl of cells in growth medium. […] Control wells received 50 nl of DMSO treatment for nommlization and calculating IC50 values. The treated cells were incubated at 37° C. and 5% CO2 for an additional forty-two hours. Following incubation, the growth medium was removed and 50 μl of BrightGlo luminescence reagent (Promega) was added to each well of the 96-well assay plates. The plates were placed on an orbital shaker for 5 min and then luminescence was quantified on the Victor3 (Perkin Elmer) plate reader. Readings were normalized to DMSO only treated cells, and normalized activities were utilized for IC50 calculations using the dose-response log (inhibitor) vs. response—variable slope (four parameters) nonlinear regression feature available in GraphPad Prism 5.0 or 6.0.

[2] = test system: primary human fibroblasts derived from IPF patients (LL29 cells); experiment: Inhibition of the fibrotic process in TGF-β1-treated primary human fibroblasts from IPF patients (αSMA staining); assay type: cell-based; conditions: Fibroblast, 96 h, TGF-β1 20 ng/mL, 4 days, read-out: Inhibition of fibrosis EC50
From the text: The above synthesized compounds were screened using primary human fibroblasts (derived from IPF patients) treated with TGF-β1 to determine their ability to inhibit the fibrotic process.
Human Fibroblast Celt Culture: Primary human fibroblasts derived from IPF patients (LL29 cells) [^1Xiaoqiu Liu, et.al., “Fibrotic Luna Fibroblasts Show Blunted Inhibition by cAMP Due to Deficient cAMP Response Element-Binding Protein Phosphorylation”, Journal of Pharmacology and Experimental Therapeutics (2005), 315(2), 678-687; ^2Watts, K. L., et.al., “RhoA signaling modulates cyclin D1 expression in human lung fibroblasts; implications for idiopathic pulmonary fibrosis”, Respiratory Research (2006), 7(1), 88] were obtained from American Type Culture Collection (ATCC) and expanded in F12 medium supplemented with 15% Fetal Bovine Serum and Penicillin/Streptomycin.
Compound Screening: Each compound was dissolved in DMSO as a 10 mM stock and used to prepare compound source plates. Serial dilution (1:2, 11-point dose-response curves from 10 μM to […]) and compound transfer was performed using the ECHO 550 (Lahcyte, Sunnyvale, Calif.) into 384-well clear bottom assay plates (Greiner Bio-One) with appropriate DMSO backfill fhr a final DMSO concentration of 0.1%. LL29 cells were plated at 1,500 cells/well in 80 μl/well F12 medium supplemented with 1% Fetal Bovine Serum. One hour after addition of the cells. TGF-β1 (Peprotech; 20 ng/mL) was added to the plates to induce fibrosis (ref. 1 and 2 above), Wells treated with TGF-β1 and containing DMSO were used as controls. Cells were incubated at 37° C. and 5% CO2 for 4 days. Following incubation for 4 days, SYTOX green nucleic acid stain (Life Technologies [Thermo Fisher Scientific]) was added to the wells at a final concentration of 1 uM and incubated at room temperature for 30 min. Cells were then fixed using 4% formaldehyde (Electron Microscopy Sciences), washed 3 times with PBS followed by blocking and penneabilization using 3% Bovine Serum Albumin (BSA; Sigma) and 0.3% Triton X-100 (Sigma) in PBS. Cells were then stained with antibody specific to α-smooth muscle actin (αSMA; Abeam) (ref 1 and 2 above) in 3% Bovine Serum Albumin (BSA; Sigma) and 0.3% Triton X-100 (Sigma) in PBS, and incubated overnight at 4° C. Cells were then washed 3 times with PBS, followed by incubation with Alexa Flor-647 conjugated secondary antibody (Life Technologies [Thermo Fisher Scientific]) and DAPI at room temperature for 1 hour, Cells were then washed 3 times with PBS and plates were sealed for imaging. αSMA staining was imaged by excitation at 630 nm and emission at 665 nm and quantified using the Compartmental Analysis program on the CellInsight CX5 (Thermo Scientific). Dead or apoptotic cells were excluded from analysis based on positive SYTOX green staining. % of total cells positive for αSMA were counted in each well and normalized to the average of 11 wells treated with TGF-β1 on the same plate using Dotmatics' Studies Software. The normalized averages (fold change over untreated) of 3 replicate wells for each compound concentration were used to create dose-responses curves and EC50 values were calculated using non-linear regression curve fit in the Dotmatics' Studies Software. The EC50 values are reported.

SMILES | IC50 ([1]; Homo sapiens) | IC50 [1] | EC50 [2]
CN(C)c1cncc(-c2cc3c(-c4nc5c(-c6cccc(F)c6)ccnc5[nH]4)n[nH]c3cn2)c1 [Compound 7, 5-(3-(7-(3-Fluorophenyl)-3H-imidazo[4,5-b]pyridin-2-yl)-1H-pyrazolo[3,4-c]pyridin-5-yl)-N,N-dimethylpyridin-3-amine] | 85.4 nM | – | 406 nM
CC(C)(C)C(=O)Nc1cncc(-c2cc3c(-c4nc5c(-c6cccc(F)c6)ccnc5[nH]4)n[nH]c3cn2)c1 [Compound 8, N-(5-(3-(7-(3-Fluorophenyl)-3H-imidazo[4,5-b]pyridin-2-yl)-1H-pyrazolo[3,4-c]pyridin-5-yl)pyridin-3-yl)pivalamide] | 155 nM | – | 75 nM
CC(C)C(=O)Nc1cncc(-c2cc3c(-c4nc5c(-c6ccccc6F)ccnc5[nH]4)n[nH]c3cn2)c1 [Compound 61, N-(5-(3-(7-(2-Fluorophenyl)-3H-imidazo[4,5-b]pyridin-2-yl)-1H-pyrazolo[3,4-c]pyridin-5-yl)pyridin-3-yl)isobutyramide] | 77.8 nM | – | –
c1cncc(-c2ccnc3[nH]c(-c4n[nH]c5cnc(-c6cncc(CN7CCCCC7)c6)cc45)nc23)c1 [Compound 93, 5-(5-(Piperidin-1-ylmethyl)pyridin-3-yl)-3-(7-(pyridin-3-yl)-3H-imidazo[4,5-b]pyridin-2-yl)-1H-pyrazolo[3,4-c]pyridine] | > 10000 nM | – | –
CN(C)c1cncc(-c2cc3c(-c4nc5c(N6CCCCC6)ccnc5[nH]4)n[nH]c3cn2)c1 [Compound 163, N,N-Dimethyl-5-(3-(7-(piperidin-1-yl)-3H-imidazo[4,5-b]pyridin-2-yl)-1H-pyrazolo[3,4-c]pyridin-5-yl)pyridin-3-amine] | 1030 nM | – | –
CC(C)(C)C(=O)Nc1cncc(-c2cc3c(-c4nc5c(-c6ccc(F)s6)ccnc5[nH]4)n[nH]c3cn2)c1 [Compound 346, N-(5-(3-(7-(5-Fluorothiophen-2-yl)-3H-imidazo-[4,5-b]pyridin-2-yl)-1H-pyrazolo[3,4-c]pyridin-5-yl)pyridin-3-yl)pivalamide] | 62.1 nM | – | –
Fc1ccc(-c2ccnc3[nH]c(-c4n[nH]c5cnc(-c6cncc(CN7CCCC7)c6)cc45)nc23)s1 [Compound 352, 3-(7-(5-Fluorothiophen-2-yl)-3H-imidazo[4,5-b]pyridin-2-yl)-5-(5-(pyrrolidin-1-ylmethyl)pyridin-3-yl)-1H-pyrazolo[3,4-c]pyridine] | 156 nM | – | –
CCNCc1cncc(-c2cc3c(-c4nc5c(-c6cc(F)cc(NCCN(C)C)c6)ccnc5[nH]4)n[nH]c3cn2)c1 [Compound 448, N^1-(3-(2-(5-(5-((Ethylamino)methyl)pyridin-3-yl)-1H-pyrazolo[3,4-c]pyridin-3-yl)-3H-imidazo[4,5-b]pyridin-7-yl)-5-fluorophenyl)-N^2,N^2-dimethylethane-1,2-diamine] | > 10000 nM | – | –
CCCCC(=O)Nc1cncc(-c2cc3c(-c4nc5c(-c6cc(F)cc(NCCN(C)C)c6)ccnc5[nH]4)n[nH]c3cn2)c1 [Compound 460] | 139 nM | – | –
Fc1cccc(-c2ccnc3[nH]c(-c4n[nH]c5cnc(C6CCNCC6)cc45)nc23)c1 [Compound 937, 3-(7-(3-Fluorophenyl)-3H-imidazo[4,5-b]pyridin-2-yl)-5-(piperidin-4-yl)-1H-pyrazolo[3,4-c]pyridine] | 1860 nM | – | –
Fc1cccc(-c2ccnc3[nH]c(-c4n[nH]c5cnc(C6=CCNCC6)cc45)nc23)c1 [Compound 938, 3-(7-(3-Fluorophenyl)-3H-imidazo[4,5-b]pyridin-2-yl)-5-(1,2,3,6-tetrahydropyridin-4-yl)-1H-pyrazolo[3,4-c]pyridine] | > 1000 nM | – | –
Fc1cccc(-c2ccnc3[nH]c(-c4n[nH]c5cnc(-c6cncc(OC7CCCCC7)c6)cc45)nc23)c1 [Compound 943, 5-(5-(Cyclohexyloxy)pyridin-3-yl)-3-(7-(3-fluorophenyl)-3H-imidazo[4,5-b]pyridin-2-yl)-1H-pyrazolo[3,4-c]pyridine] | 950 nM | – | –
Fc1cccc(-c2ccnc3[nH]c(-c4n[nH]c5cnc(-c6cncc(OC7CCNCC7)c6)cc45)nc23)c1 [Compound 944, 3-(7-(3-Fluorophenyl)-3H-imidazo[4,5-b]pyridin-2-yl)-5-(5-(piperidin-4-yloxy)pyridin-3-yl)-1H-pyrazolo[3,4-c]pyridine] | > 10000 nM | – | –

More lines, main results first:

IC50 ([1]; Homo sapiens) | IC50 [1] | SMILES | EC50 [2]
> 10000 nM | – | Fc1cccc(-c2ccnc3[nH]c(-c4n[nH]c5cnc(-c6cncc(OCCN7CCCC7)c6)cc45)nc23)c1 [Compound 946, 3-(7-(3-Fluorophenyl)-3H-imidazo[4,5-b]pyridin-2-yl)-5-(5-(2-(pyrrolidin-1-yl)ethoxy)pyridin-3-yl)-1H-pyrazolo[3,4-c]pyridine] | –
4430 nM | – | Fc1cccc(-c2ccnc3[nH]c(-c4n[nH]c5cnc(-c6cncc(OCc7ccccc7)c6)cc45)nc23)c1 [Compound 950, 5-(5-(Benzyloxy)pyridin-3-yl)-3-(7-(3-fluorophenyl)-3H-imidazo[4,5-b]pyridin-2-yl)-1H-pyrazolo[3,4-c]pyridine] | –
> 10000 nM | – | O=C(CC1CCCCC1)Nc1cncc(-c2cc3c(-c4nc5c(-c6cccc(F)c6)ccnc5[nH]4)n[nH]c3cn2)c1 [Compound 951, 2-Cyclohexyl-N-(5-(3-(7-(3-fluorophenyl)-3H-imidazo[4,5-b]pyridin-2-yl)-1H-pyrazolo[3,4-c]pyridin-5-yl)pyridin-3-yl)acetamide] | –
– | > 1000 nM | Fc1cccc(-c2ccnc3[nH]c(-c4n[nH]c5cnc(-c6ccncc6)cc45)nc23)c1 [Compound 952, -(7-(3-Fluorophenyl)-3H-imidazo[4,5-b]pyridin-2-yl)-5-(pyridin-4-yl)-1 H-pyrazolo[3,4-c]pyridine] | –
– | > 10000 nM | CC(C)CC(=O)Nc1cncc(-c2cc3c(-c4nc5c(-c6cc(F)cc(OCCN(C)C)c6)ccnc5[nH]4)n[nH]c3cn2)c1 [Compound 1262] | –
253 nM | – | CC(C)CC(=O)Nc1cncc(-c2cc3c(-c4nc5c(-c6cc(O)cc(F)c6)ccnc5[nH]4)n[nH]c3cn2)c1 [Compound 1350, N-(5-(3-(7-(3-Fluoro-5-hydroxyphenyl)-3H-imidazo[4,5-b]pyridin-2-yl)-1H-pyrazolo[3,4-c]pyridin-5-yl)pyndin-3-yl)-3-methylbutanamide] | –
646 nM | – | CN(C)CC(=O)Nc1cncc(-c2cc3c(-c4nc5c(-c6cccc(F)c6)ccnc5[nH]4)n[nH]c3cn2)c1 [Compound 1437, 2-(Dimethylamino)-N-(5-(3-(7-(3-fluorophenyl)-3H-imidazo[4,5-b]pyridin-2-yl)-1H-pyrazolo[3,4-c]pyridin-5-yl)pyridin-3-yl)acetamide] | –
